Columns and labels:
[1] = system: leaf rust of wheat (Puccinia recondite); test: Efficacy against leaf rust of wheat (spray after infection of potted wheat seedlings); assay type: in vivo; conditions: wheat seedlings cv. Kanzler, sprayed 24 hours after dusting with spores, evaluated after 8 days, untreated 70
Protocol: (§1) The active ingredients are formulated as a 20% strength emulsion in a mixture of 70% by weight of cyclohexanone, 20% by weight of Nekanil® LN (Lutensol® AP6, wetting agent having emulsifier and dispersing action based on ethoxylated alkylphenols) and 10% by weight of Emulphor® EL (Emulan® EL, emulsifier based on ethoxylated fatty alcohols) and diluted with water to give the desired concentration. The experiments were evaluated visually.
Leaves of wheat seedlings cv. “Kanzler” in pots were dusted with leaf rust spores (Puccinia recondite). The pots were then placed for 24 hours in a chamber with high atmospheric humidity (90 to 95%) at from 20 to 22° C. During this time, the spores germinated, and the germ tubes penetrated the leaf tissue. The infected plants were subsequently sprayed to runoff point with aqueous spray mixtures comprising 80% of active ingredient of Table 1 and 20% of emulsifier in the dry matter. After the spray coating had dried on, the test plants were placed in a greenhouse at from 20 to 22° C. and a relative atmospheric humidity of 65 to 70%. After 8 days, the extent of rust development on the leaves was determined.

[2] = system: powdery mildew of wheat (Erysiphe graminis var. tritici); test: Efficacy against powdery mildew of wheat (protective spray on potted wheat seedlings); assay type: in vivo; conditions: wheat seedlings cv. Frühgold, sprayed 24 hours before dusting with oidia, evaluated after 7 days, untreated 70
Protocol: as §1
Leaves of wheat seedlings cv. “Frühgold” in pots were sprayed with aqueous spray mixture comprising 80% of active ingredient of Table 1 and 20% of emulsifier in the dry matter and, 24 hours after the spray coating had dried on, dusted with oidia (spores) of powdery mildew of wheat (Erysiphe graminis var. tritici). The test plants were subsequently placed in a greenhouse at from 20 to 22° C. and a relative atmospheric humidity of 75 to 80%. After 7 days, the extent of mildew development was determined.

melting point [°C]	SMILES	% infection of the leaves after application of an aqueous preparation comprising . . . ppm of active ingredient ([1]; 63 ppm) [%]	% infection of the leaves after application of an aqueous preparation comprising 250 ppm of active ingredient [2] [%]	% infection of the leaves after application of an aqueous preparation comprising . . . ppm of active ingredient ([1]; 16 ppm) [%]
–	C#CCON=C(C(C)=NOCc1ccccc1C(=COC)C(=O)OC)c1ccc(C(C)=NOC)cc1 [I.57]	15	0	–
–	CC=C(C(=O)OC)c1ccccc1CON=C(C)C(=NOC)c1ccc(N(CC)C(=O)CC)cc1 [I.22]	–	15	–
–	CNC(=O)C(=NOC)c1ccccc1CON=C(C)C(=NOC)c1ccc(N(C)C(C)=O)cc1 [I.29]	–	–	5
–	CCC(=O)N(C)c1ccc(C(=NOC)C(C)=NOCc2ccccc2C(=COC)C(=O)OC)cc1 [I.17]	–	15	–
112 to 114	CO/N=C(\C)c1ccc(C(=N\OC)/C(C)=N/OCc2ccccc2/C(=N\OC)C(=O)OC)cc1 [I.51]	–	–	–
–	CC=C(C(=O)OC)c1ccccc1CON=C(C)C(=NOC)c1ccc(C=NOC)cc1 [I.58]	0	0	–
–	CON=Cc1ccc(C(=NOC)C(C)=NOCc2ccccc2C(=NOC)C(=O)OC)cc1 [I.53]	–	15	–
111 to 113	CO/N=C(/C(C)=N/OCc1ccccc1/C(=N\OC)C(=O)OC)c1ccc(N(C)C(=O)C(C)(C)C)cc1 [I.12]	15	5	–
–	CCON=C(C)c1ccc(C(=NOC)C(C)=NOCc2ccccc2C(=NOC)C(=O)NC)cc1 [I.55]	–	15	0
–	CCC(=O)Nc1ccc(C(=NOC)C(C)=NOCc2ccccc2C(=COC)C(=O)OC)cc1 [I.16]	–	5	–
–	CCN(C(C)=O)c1ccc(C(=NOC)C(C)=NOCc2ccccc2C(=NOC)C(=O)NC)cc1 [I.30]	–	–	15
–	CCCCN(C(=O)C(C)(C)C)c1ccc(C(=NOC)C(C)=NOCc2ccccc2C(=NOC)C(=O)NC)cc1 [I.27]	–	5	3
–	CC=C(C(=O)OC)c1ccccc1CON=C(C)C(=NOC)c1ccc(NC(=O)CC)cc1 [I.20]	–	15	–
–	CC=C(C(=O)OC)c1ccccc1CON=C(C)C(=NOC)c1ccc(N(C)C(=O)C(C)(C)C)cc1 [I.44]	5	–	–
–	CCC(=O)N(CC)c1ccc(C(=NOC)C(C)=NOCc2ccccc2C(=COC)C(=O)OC)cc1 [I.18]	–	5	–
–	COC=C(C(=O)OC)c1ccccc1CON=C(C)C(=NOC)c1ccc(C=NOC)cc1 [I.59]	10	0	–
168 to 170	CNC(=O)/C(=N/OC)c1ccccc1CO/N=C(C)/C(=N/OC)c1ccc(N(C)C(=O)C(C)(C)C)cc1 [I.10]	–	–	–
–	C#CCON=C(C(C)=NOCc1ccccc1C(=COC)C(=O)OC)c1ccc(C(C)=NOCC)cc1 [I.56]	15	–	–

melting point [°C]	SMILES	% infection of the leaves after application of an aqueous preparation comprising . . . ppm of active ingredient ([1]; 63 ppm) [%]	% infection of the leaves after application of an aqueous preparation comprising 250 ppm of active ingredient [2] [%]	% infection of the leaves after application of an aqueous preparation comprising . . . ppm of active ingredient ([1]; 16 ppm) [%]
–	CCCN(C(=O)CC)c1ccc(C(=NOC)C(C)=NOCc2ccccc2C(=NOC)C(=O)NC)cc1 [I.15]	–	5	–
–	CCN(C(=O)C(C)(C)C)c1ccc(C(=NOC)C(C)=NOCc2ccccc2C(=NOC)C(=O)NC)cc1 [I.26]	–	15	–
–	COC=C(C(=O)OC)c1ccccc1CON=C(C)C(=NOC)c1ccc(NC(=O)C(C)(C)C)cc1 [I.13]	15	0	5
–	CC=C(C(=O)OC)c1ccccc1CON=C(C)C(=NOC)c1ccc(N(CC)C(C)=O)cc1 [I.41]	15	15	–
–	CCCN(C(C)=O)c1ccc(C(=NOC)C(C)=NOCc2ccccc2C(=NOC)C(=O)NC)cc1 [I.31]	–	15	0
–	CCCN(C(=O)CC)c1ccc(C(=NOC)C(C)=NOCc2ccccc2C(=COC)C(=O)OC)cc1 [I.19]	–	5	–
–	CCC(=O)N(C)c1ccc(C(=NOC)C(C)=NOCc2ccccc2C(=NOC)C(=O)NC)cc1 [I.5]	0	5	–
–	CC=C(C(=O)OC)c1ccccc1CON=C(C)C(=NOC)c1ccc(N(C)C(C)=O)cc1 [I.40]	0	15	–
–	CNC(=O)C(=NOC)c1ccccc1CON=C(C)C(=NOC)c1ccc(C=NOC)cc1 [I.54]	–	5	0
–	CNC(=O)/C(=N/OC)c1ccccc1CO/N=C(C)/C(=N/OC)c1ccc(/C(C)=N/OC)cc1 [I.52]	–	15	0
–	CC=C(C(=O)OC)c1ccccc1CON=C(C)C(=NOC)c1ccc(NC(=O)C(C)(C)C)cc1 [I.43]	5	15	–
–	CC=C(C(=O)OC)c1ccccc1CON=C(C)C(=NOC)c1ccc(N(C)C(=O)CC)cc1 [I.21]	–	5	–
–	CC=C(C(=O)OC)c1ccccc1CON=C(C)C(=NOC)c1ccc(N(CCC)C(=O)CC)cc1 [I.23]	–	15	–
114 to 116	CO/N=C(/C(C)=N/OCc1ccccc1/C(=N\OC)C(=O)OC)c1ccc(NC(=O)C(C)(C)C)cc1 [I.11]	–	–	–
–	CCC(=O)N(CC)c1ccc(C(=NOC)C(C)=NOCc2ccccc2C(=NOC)C(=O)NC)cc1 [I.8]	0	0	–
–	CNC(=O)C(=NOC)c1ccccc1CON=C(C)C(=NOC)c1ccc(N(OC)C(=O)OC)cc1 [I.25]	–	5	–
–	CC=C(C(=O)OC)c1ccccc1CON=C(C)C(=NOC)c1ccc(N(CC)C(=O)C(C)(C)C)cc1 [I.45]	15	15	–
–	CCCN(C(=O)C(C)(C)C)c1ccc(C(=NOC)C(C)=NOCc2ccccc2C(=NOC)C(=O)NC)cc1 [I.32]	–	15	0

From patent US6509379B1, “Phenylacetic acid derivatives, process and intermediate products for their preparation, and their use as fungicides and pesticides” (BASF Aktiengesellschaft, priority 1995, dated 2003)
